The structures appear in SMILES notation.

In series [1] the test system is C57BL/6 mice. The series is described as follows: Tail-suspension test in WT mice after 35 days (Study 3). In kind it is in vivo, mouse. To be noted: daily for 35 days, prednisolone 15 mg/kg or vamorolone 45 mg/kg. The method, then: In the CNS of these miceFkbp5 mRNA and Ddrd4 mRNA levels were increased (Supplementary Fig. S3d and e). Expression of FKBP5 is reported to be GRE regulated, and Drd4 is a reported biomarker of depression.
• 1) Force-swim test: Animals were single housed and acclimated in the behavior room for 30 min prior to test. A clean 1-L beaker was filled with 700 to 800 ml of 23°C water. Each mouse was placed into the water for 6 min. The total immobility time was recorded. After the test, the animals were dried and placed in a cage on a heating pad for about 10 min before returning to the home cages. • 2) Tail-suspension test: Isolated mice were suspended 50 cm above the floor by surgical tape placed approximately 1 cm from the tip of the tail for 6 min. The total immobility time of mice was measured. Mice were considered immobile only when they hung passively and completely motionless.

Series [2] is described as follows: MDCK control cell permeability (not transfected with human P-gp). To be noted: dog, pH 7.4. The method, then:
(§1) To measure transport by P-gp, Madin-Darby canine kidney (MDCK) cells that had been transfected with the human P-gp (MDR1) gene were plated in a Transwell plate and cultured until polarized. MDCK cells that are not transfected with human P-gp were used as a control. Compounds were added to either the apical or the basolateral side of the cells, and transport across the membrane was measured.
(§2) Testing for permeability and MDR1 substrate assessment was done in MDCK cells transfected to overexpress human MDR1 gene that encodes efflux transporter protein (P-gp). […] Briefly, cells were maintained in Dulbecco’s modified Eagle medium (DMEM) with 10% fetal bovine serum and 1% penicillin/streptomycin in a humidified incubator at 37°C with 5% CO2. The study was performed by Absorption Systems (now Pharmaron; Exton, PA). The MDR1-MDCK and MDCK control cell lines were seeded into 12-well plates for 7 days. Integrity of monolayer tight junctions was monitored preincubation by transepithelial electrical resistance (TEER) measurement. […] The samples were withdrawn at t = 0 and 60 min from the receiver and donor compartments. Compound levels were measured by LC/MS–MS. Additionally, post-assay, cell monolayer integrity was checked with Lucifer Yellow permeability measurement. Transport assay low- and high-permeability control compounds were run in parallel for assay validation. Papp values were calculated considering compound concentrations across the monolayer and cell surface area. Efflux ratios were calculated based on Papp B > A over Papp A > B. The difference between the MDR1-MDCK and the MDCK cell efflux ratios was also calculated. […] Compounds were classified by Absorption Systems/Pharmaron as follows: […]

The test system of another series is B10-mdx mice. The series is described as follows: Four-limb grip strength (Study 2). The following applies: 4 weeks of treatment, not complete, not dose dependent. It is filed as in vivo, mouse. The method, then: After 4 weeks of treatment, muscle strength was evaluated using a grip strength meter.
Study 2: The goal of the second study was to evaluate corticosteroid side effects and efficacy in a longer study (4 months). After 28 days of dosing, mice were tested for depression-like behavior using a measure of corticosteroid-induced depression (FST followed by TST). Muscle function was tested via grip strength. Tests for depression and for grip-strength were done in a blinded manner. After 4 months, mice were euthanized, and tissues were collected. Bone from whole left leg was collected for micro-CT analysis. The number of animals per group was as follows: WT, n = 16; B10-mdx, n = 15; corticosteroid-treated groups, n = 8–10.
A four-limb grip strength meter from Bioseb was used to determine the maximal peak force (g) developed by the mouse when the examiner tried to pull it out of a specially designed grid for mice (Bioseb, BIO-GS3 & BIO-GRIPGS). The examiner was blinded, and a total of 5 measurements were applied to each mouse, 1–2 min between measurements. The average of the 5 values was used for subsequent calculations.

For series [3] the following is noted: DBA/2 J, mouse, in vivo.
Description: (§3) The brain-to-plasma ratio was then calculated using the area under the curve (AUC) for brain exposure and the AUC for plasma exposure.
In another series the test system is MDCK cells. The series is described as follows: MDCK control cell permeability (not transfected with human P-gp). The following applies: 1 μM. The method, then: as §1, §2
The conditions of series [4]: cited from earlier work.
Series [5] in a line: in vivo. To be noted: DBA/2 J, mouse, plasma, po.
Description: as §3
A short description of series [6]: in vivo. To be noted: C57BL/10, mouse, oral; for Kp: brain/plasma; for AUC / Cmax: plasma.
For series [7], the system named is C57BL/6 mice. The series is described as follows: RT-qPCR of brain mRNA in WT mice (Study 3). To be noted: daily for 35 days, prednisolone 15 mg/kg or vamorolone 45 mg/kg. (Real-time PCR tracks product formation cycle by cycle.)
Description: RNA concentration was measured by using Cytation 5 (BioTek).
Series [8] can be described thus: Pharmacokinetics and biodistribution in C57BL/10 mice.
Series [9] in a line: Pharmacokinetics and brain/plasma biodistribution in WT DBA/2 J mice.
Description: as §3
Where [10] appears, read: 30 mg/kg oral gavage, DBA/2 J mice.

Turning to `C[C@]12C=CC(=O)C=C1CC[C@@H]1[C@@H]2[C@@H](O)C[C@@]2(C)[C@H]1CC[C@]2(O)C(=O)CO` [Prednisolone], the “depression-like behavior as measured by the TST” value in the series with C57BL/6 mice [1] was “induced depression-like behavior”.
In series [2], `CC(=O)OCC(=O)[C@@]12N=C(C)O[C@@H]1C[C@H]1[C@@H]3CCC4=CC(=O)C=C[C@]4(C)[C@H]3[C@@H](O)C[C@@]12C` [Deflazacort] had a Papp A→B at 60 min, 1 μM of 12.3 ×10⁻⁶ cm/s; an apparent permeability from apical to basolateral (Papp A→B) at 60 min, 10 μM of 6.66 ×10⁻⁶ cm/s; an apparent permeability from basolateral to apical (Papp B→A) at 60 min, 1 μM of 11.6 ×10⁻⁶ cm/s; a Papp B→A at 60 min, 10 μM of 6.7 ×10⁻⁶ cm/s. Further, in series [2], the efflux ratio at 60 min, 1 μM came to 0.949 and the efflux ratio at 60 min, 10 μM came to 1.01. Also, in the series with B10-mdx mice, the grip strength result is “showed some protection from loss of grip strength”. Also, in [3], the “predicted AUC in mice” value is 446 ng·h/mL and the “predicted Cmax in mice” value is listed as 267.5 ng/mL.
Regarding `C[C@@H]1C[C@H]2[C@@H]3CCC4=CC(=O)C=C[C@]4(C)C3=CC[C@]2(C)[C@@]1(O)C(=O)CO` [Vamorolone], in series [2], the Papp A→B at 60 min, 10 μM was 33.4 ×10⁻⁶ cm/s; the Papp B→A at 60 min, 1 μM is 25.2 ×10⁻⁶ cm/s; the apparent permeability from basolateral to apical (Papp B→A) at 60 min, 10 μM turned out to be 22.7 ×10⁻⁶ cm/s; the efflux ratio at 60 min, 1 μM stood at 0.755. Further, the efflux ratio at 60 min, 10 μM in series [2] worked out at 0.746. Moreover, the “Apical to Basolateral MDCK” value in the series with MDCK cells is given as 33.4 10 ^ −6 cm/s. Further, in the series on C57BL/6 mice [1], the “depression-like behavior as measured by the TST” value is listed as “induced depression-like behavior”. Further, the “reduction of serum osteocalcin levels” value in series [4] (Phase 2A, subjects with DMD, 6 mg/kg/day, 14 days of dosing) is recorded as ~ 33%. Also, the “reduction of osteocalcin levels” value in series [4] (Phase 2b 24-week study in DMD boys, 6 mg/kg) is given as 0.17%. In the series “in vivo [5]” (15 mg/kg), this compound returned an AUC of 9350 ng·h/mL and a Cmax of 1980 ng/mL. For the same compound, in “in vivo [5]” (30 mg/kg), the AUC is 26600 ng·h/mL and the peak concentration (Cmax) amounted to 2700 ng/mL. In the series “in vivo [5]” (45 mg/kg), this compound displayed an exposure (AUC) of 34100 ng·h/mL and a Cmax of 3470 ng/mL. For the same compound, in the series “in vivo [6]” (5 mg/kg), the Kp was found to be 0.5, the exposure (AUC) was found to be 2850 ng·h/mL and the concentration peaked (Cmax) at 818 ng/mL. In the series “in vivo [6]” (30 mg/kg), this compound had a Kp of 0.46, an area under the curve (AUC) of 33900 ng·h/mL and a Cmax of 8790 ng/mL. For the same compound, in the series with C57BL/6 mice [7], the “Ddrd4 mRNA levels in the CNS” value is recorded as “increased” and the “Fkbp5 mRNA levels in the CNS” value is “increased”. Further, in series [8] (5 mg/kg), the “Brain AUC” value is 1418 hr∙ng/g of tissue, the “Brain Cmax” value is 443 ng/g of tissue and the “Brain/plasma ratio based on Cmax” value is recorded as 0.54. Moreover, in series [8] (30 mg/kg), the “Brain AUC” value was 15538 hr∙ng/g of tissue and the “Brain Cmax” value is on record as 4402 ng/g of tissue. Moreover, in [9] (setting [10]), the “Brain AUC” value is given as 8070 h∙ng/g of tissue, the “Brain Cmax” value was 1825 ng/g of tissue, the “Brain/plasma ratio based on AUC” value is about 0.30 and the “Brain/plasma ratio based on Cmax” value is about 0.68. Besides, in series [9] (15, 30, and 45 mg/kg in mouse vs 6 mg/kg/day in human), the “fold higher exposure in the mouse (based on Cmax) than human clinical exposure” value is 2–4 fold. The Cmax in series [9] (mouse (DBA), 30 mg/kg) turned out to be 2700 ng/mL.

Broadly, the Papp A→B is the apparent permeability from the apical to the basolateral side of a cell layer. The term Papp B→A denotes the apparent permeability from the basolateral to the apical side of a cell layer. As a reminder, the efflux ratio is a quotient of directional permeabilities that is used to spot active efflux. For orientation: AUC means the area under the concentration-time curve, a measure of exposure. Read a low AUC as low exposure. A word on the Cmax: it is the peak of the concentration-time curve. One may read the Kp as the ratio of the level in a tissue or fluid to that in plasma or blood.

These data come from paper PMC10800023 (Human Molecular Genetics, 2023).
